# ChEMBL document CHEMBL4229350, “Antimicrobial activity and self-assembly behavior of antimicrobial peptide chensinin-1b with lipophilic alkyl tails” (Eur J Med Chem, 2018)
# Active and inactive are the calls of the source. The rule behind the calls is not given here. Peptide text beside a SMILES is read from it. * marks the point of attachment. Lauroyl = CCCCCCCCCCCC(=O)*; Octanoyl = CCCCCCCC(=O)*
# Key:
# Lipid bilayer [1] = assay: Induction of membrane permeabilization in calcein loaded PG/CL/PE large unilamellar vesicles assessed as calcein leakage at 6 uM after 15 mins by fluorescence assay relative to control
# Enterococcus faecalis = assay: Antimicrobial activity against Enterococcus faecalis CGMCC 1.595 after 18 hrs by micro dilution method; format: functional; settings: CGMCC 1.595, 18 h
# Lipid bilayer [2] = assay: Induction of membrane permeabilization in PG/CL large unilamellar vesicles assessed as blue shift at compound to lipid ratio of 60 by Tryptophan fluorescence spectroscopy
# Lipid bilayer [3] = assay: Induction of membrane permeabilization in PC/cholesterol large unilamellar vesicles assessed as blue shift by Tryptophan fluorescence spectroscopy
# Escherichia coli [4] = assay: Antimicrobial activity against Escherichia coli AS 1.349 after 18 hrs by micro dilution method; format: functional; settings: AS 1.349, 18 h
# U-937 [5] = assay: Antiinflammatory activity in human U937 cells assessed as inhibition of LPS-induced IL-6 production after 24 hrs by ELISA; format: functional, cell-based
# Escherichia coli [6] = assay: Antimicrobial activity against Escherichia coli AS 1.349 assessed as induction of bacterial cytoplasmic membrane depolarization at 2 times MIC after 5 mins by diSC3-5 dye-based fluorescence assay; format: functional, organism-based
# MCF7 = assay: Cytotoxicity against human MCF7 cells assessed as reduction in cell viability after 1 hr by MTT assay; format: functional, cell-based; settings: MCF7, 1 h
# Staphylococcus aureus [7] = assay: Antimicrobial activity against Staphylococcus aureus AS 1.72 after 18 hrs by micro dilution method; format: functional; settings: AS 1.72, 18 h
# U-937 [8] = assay: Antiinflammatory activity in human U937 cells assessed as inhibition of LPS-induced TNF-alpha production at 12.6 uM after 24 hrs by ELISA relative to control; format: functional; settings: U-937, 24 h
# Pseudomonas aeruginosa = assay: Antimicrobial activity against Pseudomonas aeruginosa CGMCC 1.860 after 18 hrs by micro dilution method; format: functional; settings: CGMCC 1.860, 18 h
# Lactococcus lactis = assay: Antimicrobial activity against Streptococcus lactis AS 1.1690 after 18 hrs by micro dilution method; format: functional; settings: AS 1.1690, 18 h
# Escherichia coli [9] = assay: Antimicrobial activity against Escherichia coli AS 1.349 assessed as induction of outer membrane permeabilization by measuring NPN uptake by fluorescence assay; format: functional, organism-based
# [10] = Hemolytic activity against human erythrocytes after 1 hr; format: ADME, cell-based, Erythrocyte
# Lipopolysaccharide (LPS) [11] = assay: Induction of LPS micelles disaggergation assessed as small particle distribution at 2 uM by DLS method
# Lipopolysaccharide (LPS) [12] = assay: Binding affinity to Escherichia coli 0111:B4 LPS by ITC method
# Lipopolysaccharide (LPS) [13] = assay: Induction of LPS micelles disaggergation assessed as abundant particle size formation at 2 uM by DLS method
# U-937 [14] = assay: Antiinflammatory activity in human U937 cells assessed as inhibition of LPS-induced IL-6 production at 6.25 uM after 24 hrs by ELISA relative to control; format: functional; settings: U-937, 24 h
# [15] = Cytotoxicity against human U937 cells assessed as cell viability at 3.13 to 12.6 uM after 1 hr by MTT assay relative to control; format: cell-based, U-937; settings: read-out: Activity
# Lipid bilayer [16] = assay: Induction of membrane permeabilization in calcein loaded PC/cholesterol large unilamellar vesicles assessed as calcein leakage at 50 uM after 10 mins by fluorescence assay relative to control
# [17] = Self-assembly property assessed as diameter of monodispersed micelles at 1 mg/ml at pH 7 by TEM analysis; format: physicochemical
# U-937 [18] = assay: Antiinflammatory activity in human U937 cells assessed as inhibition of LPS-induced TNF-alpha production at 3.13 uM after 24 hrs by ELISA relative to control; format: functional; settings: U-937, 24 h
# Lipid bilayer [19] = assay: Induction of membrane permeabilization in calcein loaded LPS/PC/PG large unilamellar vesicles assessed as calcein leakage after 15 mins by fluorescence assay
# U-937 [20] = assay: Antiinflammatory activity in human U937 cells assessed as inhibition of LPS-induced IL-6 production at 12.6 uM after 24 hrs by ELISA relative to control; format: functional; settings: U-937, 24 h
# A-375 = assay: Cytotoxicity against human A375 cells assessed as reduction in cell viability after 1 hr by MTT assay; format: functional, cell-based; settings: A-375, 1 h
# U-937 [21] = assay: Antiinflammatory activity in human U937 cells assessed as inhibition of LPS-induced IL-6 production at 3.13 uM after 24 hrs by ELISA relative to control; format: functional; settings: U-937, 24 h
# Bacillus cereus = assay: Antimicrobial activity against Bacillus cereus AS 1.126 after 18 hrs by micro dilution method; format: functional; settings: AS 1.126, 18 h
# [22] = Self-assembly property assessed as diameter of monodispersed micelles at 1 mg/ml at pH 7 readjusted from pH 2 by TEM analysis; format: physicochemical
# Staphylococcus aureus [23] = assay: Antimicrobial activity against Staphylococcus aureus AS 1.72 assessed as induction of outer membrane permeabilization by measuring NPN uptake by fluorescence assay; format: functional, organism-based
# HeLa = assay: Cytotoxicity against human HeLa cells assessed as reduction in cell viability after 1 hr by MTT assay; format: functional, cell-based
# Lipid bilayer [24] = assay: Induction of membrane permeabilization in PG/CL/PE large unilamellar vesicles assessed as blue shift at compound to lipid ratio of 10 by Tryptophan fluorescence spectroscopy
# Lipopolysaccharide (LPS) [25] = assay: Binding affinity to Escherichia coli 0111:B4 LPS assessed as equilibrium association constant by ITC method
# Lipid bilayer [26] = assay: Induction of membrane permeabilization in calcein loaded LPS/PC/PG large unilamellar vesicles assessed as calcein leakage at 50 uM after 15 mins by fluorescence assay relative to control
# Staphylococcus aureus [27] = assay: Antimicrobial activity against Staphylococcus aureus AS 1.72 assessed as induction of bacterial cytoplasmic membrane depolarization at 2 times MIC after 4 mins by diSC3-5 dye-based fluorescence assay; format: functional, organism-based
# Lipid bilayer [28] = assay: Induction of membrane permeabilization in calcein loaded PG/CL large unilamellar vesicles assessed as calcein leakage at 6 uM after 15 mins by fluorescence assay relative to control
# U-937 [29] = assay: Antiinflammatory activity in human U937 cells assessed as inhibition of LPS-induced TNF-alpha production after 24 hrs by ELISA; format: functional, cell-based
# Enterococcus faecium = assay: Antimicrobial activity against Enterococcus faecium CGMCC 1.2334 after 18 hrs by micro dilution method; format: functional; settings: CGMCC 1.2334, 18 h
# Lipid bilayer [30] = assay: Induction of membrane permeabilization in calcein loaded PG/CL large unilamellar vesicles assessed as calcein leakage at 3 uM after 10 mins by fluorescence assay relative to control
# Lipid bilayer [31] = assay: Induction of membrane permeabilization in calcein loaded PG/CL/PE large unilamellar vesicles assessed as calcein leakage at 3 uM after 10 mins by fluorescence assay relative to control
# U-937 [32] = assay: Antiinflammatory activity in human U937 cells assessed as inhibition of LPS-induced TNF-alpha production at 6.25 uM after 24 hrs by ELISA relative to control; format: functional; settings: U-937, 24 h
# Staphylococcus aureus [33] = assay: Antimicrobial activity against Staphylococcus aureus AS 1.72 assessed as induction of bacterial cytoplasmic membrane depolarization at 2 times MIC after 5 mins by diSC3-5 dye-based fluorescence assay; format: functional, organism-based
# Escherichia coli [34] = assay: Antimicrobial activity against Escherichia coli AS 1.349 assessed as induction of bacterial cytoplasmic membrane depolarization at 2 times MIC after 6 mins by diSC3-5 dye-based fluorescence assay; format: functional, organism-based
# Escherichia coli [35] = assay: Antimicrobial activity against Escherichia coli AS 1.349 assessed as induction of outer membrane permeabilization by measuring NPN uptake up to 50 uM by fluorescence assay; format: functional, organism-based
# Staphylococcus aureus [36] = assay: Antimicrobial activity against Staphylococcus aureus AS 1.72 assessed as induction of outer membrane permeabilization by measuring NPN uptake up to 50 uM by fluorescence assay; format: functional, organism-based
molecule,measurement,setting,value
CCCCCCCC(=O)N[C@@H](CO)C(=O)N[C@@H](CCCCN)C(=O)N[C@H](C(=O)N[C@@H](Cc1c[nH]c2ccccc12)C(=O)N[C@@H](CCCNC(=N)N)C(=O)N[C@@H](Cc1cnc[nH]1)C(=O)N[C@@H](Cc1c[nH]c2ccccc12)C(=O)N[C@@H](CCCNC(=N)N)C(=O)N[C@@H](CCCNC(=N)N)C(=O)N[C@@H](Cc1ccccc1)C(=O)N[C@@H](Cc1c[nH]c2ccccc12)C(=O)N[C@@H](Cc1cnc[nH]1)C(=O)N[C@@H](CCCNC(=N)N)C(=O)N[C@@H](C)C(=O)N[C@@H](Cc1cnc[nH]1)C(=O)N[C@@H](CCCNC(=N)N)C(=O)N[C@@H](CCCCN)C(=O)N[C@@H](CC(C)C)C(=O)O)C(C)C (Octanoyl-SKVWRHWRRFWHRAHRKL-OH),Activity,Lipid bilayer [1],92%
same,MIC,Enterococcus faecalis,1.56 µM
same,Activity,Lipid bilayer [2],24 nm
same,Activity,Lipid bilayer [3],inactive
same,MIC,Escherichia coli [4],3.13 µM
same,inhibition,U-937 [5],Dose-dependent effect
same,Activity,Escherichia coli [6],Active
same,IC50,MCF7,34.9 µM
same,MIC,Staphylococcus aureus [7],3.13 µM
same,inhibition at 12.6 µM,U-937 [8],30%
same,MIC,Pseudomonas aeruginosa,1.56 µM
same,MIC,Lactococcus lactis,1.56 µM
same,Activity,Escherichia coli [9],Dose-dependent effect
same,HC50 at 1 h,[10],> 500 µM
same,Activity,Lipopolysaccharide (LPS) [11],400 nm
same,Kd,Lipopolysaccharide (LPS) [12],10.8 µM
same,Activity,Lipopolysaccharide (LPS) [13],68 nm
same,inhibition at 6.25 µM,U-937 [14],8%
same,"viability at 1 h, up to 12.6 µM",[15],80%
same,Activity,Lipid bilayer [16],20%
same,Activity,[17],80 nm
same,inhibition at 3.13 µM,U-937 [18],24%
same,Activity,Lipid bilayer [19],Dose-dependent effect
same,inhibition at 12.6 µM,U-937 [20],24%
same,IC50,A-375,51 µM
same,inhibition at 3.13 µM,U-937 [21],7%
same,MIC,Bacillus cereus,1.56 µM
same,Activity,[22],7 nm
same,Activity,Staphylococcus aureus [23],Dose-dependent effect
same,IC50,HeLa,23.9 µM
same,Activity,Lipid bilayer [24],16 nm
same,Ka,Lipopolysaccharide (LPS) [25],92.3 mM⁻¹
same,Activity,Lipid bilayer [26],73%
same,Activity,Staphylococcus aureus [27],Active
same,Activity,Lipid bilayer [28],95%
same,inhibition,U-937 [29],Dose-dependent effect
same,MIC,Enterococcus faecium,1.56 µM
same,Activity,Lipid bilayer [30],88%
same,Activity,Lipid bilayer [31],66%
same,inhibition at 6.25 µM,U-937 [32],28%
CCCCCCCCCCCC(=O)N[C@@H](CO)C(=O)N[C@@H](CCCCN)C(=O)N[C@H](C(=O)N[C@@H](Cc1c[nH]c2ccccc12)C(=O)N[C@@H](CCCNC(=N)N)C(=O)N[C@@H](Cc1cnc[nH]1)C(=O)N[C@@H](Cc1c[nH]c2ccccc12)C(=O)N[C@@H](CCCNC(=N)N)C(=O)N[C@@H](CCCNC(=N)N)C(=O)N[C@@H](Cc1ccccc1)C(=O)N[C@@H](Cc1c[nH]c2ccccc12)C(=O)N[C@@H](Cc1cnc[nH]1)C(=O)N[C@@H](CCCNC(=N)N)C(=O)N[C@@H](C)C(=O)N[C@@H](Cc1cnc[nH]1)C(=O)N[C@@H](CCCNC(=N)N)C(=O)N[C@@H](CCCCN)C(=O)N[C@@H](CC(C)C)C(=O)O)C(C)C (Lauroyl-SKVWRHWRRFWHRAHRKL-OH),Activity,Lipid bilayer [1],54%
same,MIC,Enterococcus faecalis,3.13 µM
same,Activity,Lipid bilayer [2],20 nm
same,Activity,Lipid bilayer [3],inactive
same,MIC,Escherichia coli [4],6.25 µM
same,inhibition,U-937 [5],Dose-dependent effect
same,IC50,MCF7,25.8 µM
same,MIC,Staphylococcus aureus [7],3.13 µM
same,inhibition at 12.6 µM,U-937 [8],31%
same,MIC,Pseudomonas aeruginosa,1.56 µM
same,MIC,Lactococcus lactis,3.13 µM
same,Activity,Escherichia coli [9],Dose-dependent effect
same,HC50 at 1 h,[10],> 500 µM
same,Kd,Lipopolysaccharide (LPS) [12],7.35 µM
same,Activity,Lipopolysaccharide (LPS) [13],350 nm
same,inhibition at 6.25 µM,U-937 [14],29%
same,"viability at 1 h, up to 12.6 µM",[15],80%
same,Activity,Lipid bilayer [16],20%
same,Activity,[17],66 nm
same,inhibition at 3.13 µM,U-937 [18],26%
same,Activity,Lipid bilayer [19],Dose-dependent effect
same,Activity,Staphylococcus aureus [33],Active
same,inhibition at 12.6 µM,U-937 [20],33%
same,IC50,A-375,21.2 µM
same,inhibition at 3.13 µM,U-937 [21],17%
same,MIC,Bacillus cereus,3.13 µM
same,Activity,[22],108 nm
same,Activity,Staphylococcus aureus [23],Dose-dependent effect
same,IC50,HeLa,20.4 µM
same,Activity,Lipid bilayer [24],16 nm
same,Ka,Lipopolysaccharide (LPS) [25],136 mM⁻¹
same,Activity,Lipid bilayer [26],58%
same,Activity,Escherichia coli [34],Active
same,Activity,Lipid bilayer [28],81%
same,inhibition,U-937 [29],Dose-dependent effect
same,MIC,Enterococcus faecium,1.56 µM
same,Activity,Lipid bilayer [30],64%
same,Activity,Lipid bilayer [31],42%
same,inhibition at 6.25 µM,U-937 [32],27%
GENTAMICIN,Activity,Escherichia coli [35],Active
same,Activity,Staphylococcus aureus [36],Active
